Converted amounts (≈) assume the structure as drawn. Where two headings read alike, the source gives them in different places. One block for each molecule: values may come before it.
Experiments:
CYP2C8 = target: T1, CYP2C8 (Homo sapiens, UniProt P10632); conditions: read-out: Positive control IC50; Rosiglitazone hydroxylation; in-house data, similar to the reference values [1]
T1 sequence (P10632 1-490): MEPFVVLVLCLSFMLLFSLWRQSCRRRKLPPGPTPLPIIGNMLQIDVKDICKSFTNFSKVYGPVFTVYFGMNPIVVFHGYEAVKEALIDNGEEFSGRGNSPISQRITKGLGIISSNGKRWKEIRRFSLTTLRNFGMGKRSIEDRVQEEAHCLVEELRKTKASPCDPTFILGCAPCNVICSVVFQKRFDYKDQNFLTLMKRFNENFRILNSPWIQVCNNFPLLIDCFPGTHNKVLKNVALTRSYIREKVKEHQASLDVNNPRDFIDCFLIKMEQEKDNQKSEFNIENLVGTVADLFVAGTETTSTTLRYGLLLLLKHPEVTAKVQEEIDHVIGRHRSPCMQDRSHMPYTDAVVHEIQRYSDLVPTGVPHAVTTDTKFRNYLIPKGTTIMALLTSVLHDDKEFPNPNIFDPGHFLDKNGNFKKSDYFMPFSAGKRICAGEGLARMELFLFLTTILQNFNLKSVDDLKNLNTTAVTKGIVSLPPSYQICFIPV

OATP1B3 [1] = target: T2, OATP1B3 (Homo sapiens, UniProt Q9NPD5); assay: in vitro
T2 sequence (Q9NPD5 1-702): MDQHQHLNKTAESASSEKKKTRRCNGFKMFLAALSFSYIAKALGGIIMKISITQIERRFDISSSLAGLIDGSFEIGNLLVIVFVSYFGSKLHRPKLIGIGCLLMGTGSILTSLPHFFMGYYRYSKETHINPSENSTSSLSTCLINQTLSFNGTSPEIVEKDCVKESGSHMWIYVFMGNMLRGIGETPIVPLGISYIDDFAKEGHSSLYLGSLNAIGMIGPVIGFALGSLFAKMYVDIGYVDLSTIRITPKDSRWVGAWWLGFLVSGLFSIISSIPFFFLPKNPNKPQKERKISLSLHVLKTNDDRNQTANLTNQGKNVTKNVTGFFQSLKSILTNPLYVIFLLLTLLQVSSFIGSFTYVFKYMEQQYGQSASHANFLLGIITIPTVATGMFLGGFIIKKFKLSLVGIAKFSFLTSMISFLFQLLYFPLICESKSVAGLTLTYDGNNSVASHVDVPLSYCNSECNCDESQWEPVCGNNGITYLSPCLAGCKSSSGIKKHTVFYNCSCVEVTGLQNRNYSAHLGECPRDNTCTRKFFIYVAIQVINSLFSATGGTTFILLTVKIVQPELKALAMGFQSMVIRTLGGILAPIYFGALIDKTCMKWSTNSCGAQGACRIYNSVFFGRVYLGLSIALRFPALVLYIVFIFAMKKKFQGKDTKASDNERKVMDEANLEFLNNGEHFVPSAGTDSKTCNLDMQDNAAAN
Experimental: (§1) For the experiments, 0.8 × 10^5 cells per well were seeded in poly-D-lysine coated 24-well plates, except for HEK293-ASBT cells, where 1 × 10^5 cells per well were seeded in poly-D-lysine coated 24-well plates. After incubation for 48 h, the medium was removed and the cells were washed with DPBS and preincubated for 10 min in DPBS at 37 °C.
(§2) Cells were disintegrated in 150 µL of 70% acetonitrile containing internal standard (IS; 200 nM of chenodeoxycholic acid). The cells were sonicated for 3 s and centrifuged at 13,000 rpm for 10 min. An aliquot (5 µL) from the supernatant (100 µL) was injected into LC-MS/MS system.
(§3) The sample preparation method is as stated above.
(§4) Vmax represents the maximum velocity at saturating substrate concentration, [S] represents the substrate concentration, Km represents the substrate concentration at half Vmax, and CLdiffusion represents the passive diffusion clearance.

NTCP = target: T3, NTCP (Homo sapiens, UniProt Q14973); assay: Uptake of MT921 and probe substrate in HEK 293-NTCP cells (substrate specificity, kinetics)
T3 sequence (Q14973 1-349): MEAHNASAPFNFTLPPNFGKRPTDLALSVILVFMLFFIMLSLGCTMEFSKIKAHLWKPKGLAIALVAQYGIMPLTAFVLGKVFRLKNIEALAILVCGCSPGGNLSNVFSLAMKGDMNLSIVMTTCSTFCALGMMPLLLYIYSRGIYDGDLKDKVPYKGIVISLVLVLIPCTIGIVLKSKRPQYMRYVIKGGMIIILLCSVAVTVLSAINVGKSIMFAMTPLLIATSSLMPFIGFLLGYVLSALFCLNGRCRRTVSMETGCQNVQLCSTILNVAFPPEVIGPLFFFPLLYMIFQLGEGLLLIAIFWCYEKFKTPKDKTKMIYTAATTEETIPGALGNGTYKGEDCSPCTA
Experimental: as §1, §2, §3, §4

ASBT [2] = target: T4, ASBT (Homo sapiens, UniProt Q12908); assay: Uptake of MT921 and probe substrate in HEK 293-ASBT cells (substrate specificity, kinetics); type: in vitro ADME; conditions: ASBT-mediated MT921 uptake, 5–100 µM
T4 sequence (Q12908 1-348): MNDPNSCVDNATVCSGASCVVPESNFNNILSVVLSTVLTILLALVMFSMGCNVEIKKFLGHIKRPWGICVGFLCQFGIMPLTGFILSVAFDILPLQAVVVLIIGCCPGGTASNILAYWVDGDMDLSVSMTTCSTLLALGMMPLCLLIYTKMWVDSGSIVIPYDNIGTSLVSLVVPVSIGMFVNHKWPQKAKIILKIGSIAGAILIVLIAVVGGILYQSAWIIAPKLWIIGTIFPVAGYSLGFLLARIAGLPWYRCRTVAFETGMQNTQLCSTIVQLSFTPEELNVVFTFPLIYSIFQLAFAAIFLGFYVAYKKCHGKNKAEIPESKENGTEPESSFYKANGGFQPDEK
Experimental: as §1, §2, §3, §4

OATP1B3 [3] = target: T2, OATP1B3
OATP1B1 = target: T5, OATP1B1 (Homo sapiens, UniProt Q9Y6L6); assay: in vitro
T5 sequence (Q9Y6L6 1-691): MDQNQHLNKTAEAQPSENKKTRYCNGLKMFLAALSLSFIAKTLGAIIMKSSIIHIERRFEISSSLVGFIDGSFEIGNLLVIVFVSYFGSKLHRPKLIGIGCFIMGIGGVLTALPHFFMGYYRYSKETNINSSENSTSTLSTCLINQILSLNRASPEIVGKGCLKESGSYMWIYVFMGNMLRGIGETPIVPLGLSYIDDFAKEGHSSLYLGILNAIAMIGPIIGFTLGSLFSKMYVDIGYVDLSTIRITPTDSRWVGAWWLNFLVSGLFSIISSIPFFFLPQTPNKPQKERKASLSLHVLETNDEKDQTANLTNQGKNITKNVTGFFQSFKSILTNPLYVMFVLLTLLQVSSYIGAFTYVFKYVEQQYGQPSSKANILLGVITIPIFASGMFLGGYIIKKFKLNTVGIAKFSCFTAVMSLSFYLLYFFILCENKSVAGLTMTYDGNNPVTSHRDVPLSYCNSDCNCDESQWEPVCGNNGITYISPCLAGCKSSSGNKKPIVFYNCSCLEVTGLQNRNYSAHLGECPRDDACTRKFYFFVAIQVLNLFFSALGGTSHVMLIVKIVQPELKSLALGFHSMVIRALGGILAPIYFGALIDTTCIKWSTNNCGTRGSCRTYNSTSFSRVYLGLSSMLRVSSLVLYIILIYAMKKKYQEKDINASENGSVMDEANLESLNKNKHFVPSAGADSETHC

[4] = amlodipine PBPK model parameter, cited from earlier work
[5] = cited from earlier work
ASBT [6] = target: T4, ASBT; conditions: inhibition of ASBT, implemented in DDI model; ref [61]; cited from earlier work
CYP2E1 = CYP2E1 (Homo sapiens, UniProt P05181); assay: biochemical
Sequence of CYP2E1 (P05181 whole entry): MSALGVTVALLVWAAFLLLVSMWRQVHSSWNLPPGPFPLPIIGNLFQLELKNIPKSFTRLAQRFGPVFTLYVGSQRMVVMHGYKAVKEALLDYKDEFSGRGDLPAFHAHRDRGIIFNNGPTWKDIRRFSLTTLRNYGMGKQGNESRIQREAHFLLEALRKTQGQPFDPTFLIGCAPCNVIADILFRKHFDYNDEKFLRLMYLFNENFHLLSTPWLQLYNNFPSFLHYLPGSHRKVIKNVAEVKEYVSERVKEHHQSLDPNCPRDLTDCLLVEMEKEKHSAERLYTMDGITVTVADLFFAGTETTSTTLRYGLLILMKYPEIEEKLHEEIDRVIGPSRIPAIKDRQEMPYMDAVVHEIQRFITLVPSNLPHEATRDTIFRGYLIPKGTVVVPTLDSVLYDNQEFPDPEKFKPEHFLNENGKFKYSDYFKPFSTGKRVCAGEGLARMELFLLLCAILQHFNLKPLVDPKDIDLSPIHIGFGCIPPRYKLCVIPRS

[7] = substrate: C[C@H](CCC(=O)O)[C@H]1CC[C@H]2[C@@H]3[C@H](O)C[C@@H]4C[C@H](O)CC[C@]4(C)[C@H]3C[C@H](O)[C@]12C; assay: cells, lysate or membranes named; conditions: other: OAT3-mediated MT921 uptake, 5–300 µM, modified Michaelis–Menten fit; 37.0 °C
[8] = Literature, ref [33] (supplement list)

- IC50 (CYP2C8): 8.47 µM
Molecule: O=c1c(O)c(-c2ccc(O)c(O)c2)oc2cc(O)cc(O)c12 [Quercetin]

Molecule: C[C@H](CCC(=O)O)[C@H]1CC[C@H]2[C@@H]3[C@H](O)C[C@@H]4C[C@H](O)CC[C@]4(C)[C@H]3C[C@H](O)[C@]12C [MT921, cholic acid]
- Km (OATP1B3 [1]; OATP1B3-mediated MT921 uptake, 5–100 µM, modified Michaelis–Menten fit): 27.4 µM
- intrinsic clearance (Vmax/Km) (OATP1B3 [1]; human): 3.46 µL/mg protein/min
- Km at 10 min (OATP1B3 [1]; human, Km, OATP1B3-mediated MT921 uptake, 5–100 µM, modified Michaelis–Menten fit): 27.4 µM
- Vmax (NTCP; NTCP-mediated MT921 uptake, 5–100 µM): 409.28 pmol/mg protein/min
- CLdiffusion (NTCP; passive diffusion clearance, HEK 293-NTCP): 1.27 µL/mg protein/min
- Vmax (ASBT [2]): 302.31 pmol/mg protein/min
- IC50 (OATP1B3 [3]): 38.3 µM
- Ki (OATP1B3 [3]): 38.2 µM
- IC50 at 5 min (OATP1B1): 63.2 µM

Molecule: C[C@]12CC[C@@H]3c4ccc(O)cc4CC[C@H]3[C@@H]1CC[C@@H]2O[C@@H]1O[C@H](C(=O)O)[C@@H](O)[C@H](O)[C@H]1O
- Increase of probe substrate uptake rate in transporter-expressing cells compared to mock cells (OATP1B3 [1]; 0.06 µM probe substrate, HEK 293-OATP1B3): 9.6 fold

Molecule: CCOC(=O)C1=C(COCCN)NC(C)=C(C(=O)OC)C1c1ccccc1Cl (centres unmarked) [amlodipine]
- Fraction unbound [4, 8]: 0.07
- Log P [4, 8]: 3.43 Log units
- Solubility ([4]; extracted from published literature, no reference given): 75.3 mg/L (≈ 184 µM)
- Cmax Obs ([5]; 2.5 mg po (tab), sd, ref [28] (supplement list)): 1.94 ng/mL
- Cmax Obs ([5]; 5 mg po (tab), sd, first line of the study, ref [27] (supplement list)): 3.56 ng/mL
- Cmax Obs ([5]; 5 mg po (tab), sd, ref [17] (supplement list)): 2.36 ng/mL
- Cmax Obs ([5]; 5 mg po (tab), sd, ref [20] (supplement list)): 3.18 ng/mL
- Cmax Obs ([5]; 5 mg po (tab), sd, ref [23] (supplement list)): 2.44 ng/mL
- Cmax Obs ([5]; 5 mg po (tab), sd, ref [25] (supplement list)): 2.54 ng/mL
- Cmax Obs ([5]; 5 mg po (tab), sd, ref [30] (supplement list)): 3.07 ng/mL
- Cmax Obs ([5]; 5 mg po (tab), sd, second line of the study, ref [27] (supplement list)): 3.64 ng/mL
- Cmax Obs ([5]; 10 mg po (tab), md, ref [16] (supplement list)): 18.77 ng/mL
- Cmax Obs ([5]; 10 mg po (tab), md, ref [21] (supplement list)): 18.73 ng/mL
- Cmax Obs ([5]; 10 mg po (tab), sd, first line of the study, ref [22] (supplement list)): 5.32 ng/mL
- Cmax Obs ([5]; 10 mg po (tab), sd, ref [17] (supplement list)): 5.13 ng/mL
- Cmax Obs ([5]; 10 mg po (tab), sd, ref [18] (supplement list)): 5.51 ng/mL
- Cmax Obs ([5]; 10 mg po (tab), sd, ref [19] (supplement list)): 5.40 ng/mL
- Cmax Obs ([5]; 10 mg po (tab), sd, ref [20] (supplement list)): 6.85 ng/mL
- Cmax Obs ([5]; 10 mg po (tab), sd, ref [24] (supplement list)): 8.13 ng/mL
- Cmax Obs ([5]; 10 mg po (tab), sd, ref [26] (supplement list)): 6.41 ng/mL
- Cmax Obs ([5]; 10 mg po (tab), sd, ref [29] (supplement list)): 4.92 ng/mL
- Cmax Obs ([5]; 10 mg po (tab), sd, second line of the study, ref [22] (supplement list)): 4.37 ng/mL
- Ki (ASBT [6]): 42.1 µM

- IC50 (CYP2E1): 16.7 µM
Molecule: CCN(CC)C(=S)S [Diethyldithio-carbamate]

Molecule: C[C@H](CCC(=O)NCCS(=O)(=O)O)[C@H]1CC[C@H]2[C@@H]3[C@H](O)C[C@@H]4C[C@H](O)CC[C@]4(C)[C@H]3C[C@H](O)[C@]12C [[^3H]taurocholate]
- Increase of probe substrate uptake rate in transporter-expressing cells compared to mock cells (NTCP; 0.8 µM probe substrate, HEK 293-NTCP): 102.1 fold

B1: OAT3 (Homo sapiens) (protein)
chain: MTFSEILDRVGSMGHFQFLHVAILGLPILNMANHNLLQIFTAATPVHHCRPPHNASTGPWVLPMGPNGKPERCLRFVHPPNASLPNDTQRAMEPCLDGWVYNSTKDSIVTEWDLVCNSNKLKEMAQSIFMAGILIGGLVLGDLSDRFGRRPILTCSYLLLAASGSGAAFSPTFPIYMVFRFLCGFGISGITLSTVILNVEWVPTRMRAIMSTALGYCYTFGQFILPGLAYAIPQWRWLQLTVSIPFFVFFLSSWWTPESIRWLVLSGKSSKALKILRRVAVFNGKKEEGERLSLEELKLNLQKEISLAKAKYTASDLFRIPMLRRMTFCLSLAWFATGFAYYSLAMGVEEFGVNLYILQIIFGGVDVPAKFITILSLSYLGRHTTQAAALLLAGGAILALTFVPLDLQTVRTVLAVFGKGCLSSSFSCLFLYTSELYPTVIRQTGMGVSNLWTRVGSMVSPLVKITGEVQPFIPNIIYGITALLGGSAALFLPETLNQPLPETIEDLENWSLRAKKPKQEPEVEKASQRIPLQPHGPGLGSS
- Km [7]: 133.33 µM
- Vmax/Km [7]: 1.28 µL/mg protein/min
